Test systems include OVCAR-5; SNB-19; Malme-3M; PC-3; MDA-MB-435; HCT-116; RXF 393; SNB-75; RPMI-8226; SW-620; LOX IMVI; HL-60; 786-0; A549; OVCAR-8; EKVX; SK-OV-3; HCC 2998; HOP-92; NCI-H522.
Test in all cases: NCI anticancer screen, dose series, 48 h

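Method: 48-hour compound exposure of cells in 96-well plates, five concentrations, linear interpolation of endpoints. GI50 marks 50% less growth.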 The source made the active and inactive calls. Cut-off read from the data, not from the text of the source: active = GI50 up to about 1.1 µM and inactive = higher. Where a SMILES comes first, the peptide text is derived from it. The star is where a group is joined. Boc = CC(C)(C)OC(=O)*; nBu = CCCC*

On to `CC(C)(C)c1ccc(OCCOc2ccc(C(C)(C)C)cc2NC=O)c(NC=O)c1`, for which the GI50 in the test with OVCAR-5 is 22.4 µM (inactive); in the test with SNB-19 it was 18.2 µM (inactive); in the test on Malme-3M it was 8.79 µM (inactive); in the test on PC-3 it was 8.71 µM (inactive); in the test on MDA-MB-435 it was 6.85 µM (inactive); in the test with HCT-116 it was 6.43 µM (inactive). Besides, the GI50 is 8.77 µM (inactive) with RXF 393; 19.3 µM (inactive) in the test with SNB-75; 2.32 µM (inactive) in the test on RPMI-8226; 4.39 µM (inactive) in the test on SW-620; 4.5 µM (inactive) in the test with LOX IMVI; 6.04 µM (inactive) in the test with HL-60. Besides, the GI50 in the test with 786-0 was 8.17 µM (inactive); in the test on A549, 5.73 µM (inactive); in the test with OVCAR-8, 11.8 µM (inactive); in the test on EKVX, 10.5 µM (inactive); in the test with SK-OV-3 it was 20.9 µM (inactive); in the test with HCC 2998, 5.12 µM (inactive). In addition, the GI50 with HOP-92 is 7 µM (inactive); with NCI-H522 it was 6.7 µM (inactive).
In the case of `CC1(C)OCC(C2OC3OC(C)(C)OC3C2c2ccccc2)O1` (stereo not drawn), the GI50 is 91.6 µM (inactive) with OVCAR-5; 71.8 µM (inactive) with SNB-19; 42.2 µM (inactive) in the test with Malme-3M; 24.3 µM (inactive) in the test on PC-3; 37.8 µM (inactive) in the test with MDA-MB-435; 36.4 µM (inactive) with HCT-116. Moreover, the GI50 in the test with RXF 393 is 48.3 µM (inactive); in the test on SNB-75, 50.6 µM (inactive); with RPMI-8226, 48.8 µM (inactive); in the test with SW-620 it was 32.8 µM (inactive); with LOX IMVI, 32.1 µM (inactive); in the test with HL-60, 18.3 µM (inactive). The GI50 with 786-0 is 58.6 µM (inactive); in the test on A549, 42.8 µM (inactive); in the test with OVCAR-8, 43 µM (inactive); in the test with EKVX, 49 µM (inactive); with SK-OV-3, > 100 µM (inactive); in the test with HCC 2998, > 100 µM (inactive). The GI50 was 17.6 µM (inactive) in the test with HOP-92 and 37.7 µM (inactive) in the test on NCI-H522.
For `Cc1ccc(S(=O)(=O)C2=c3ncccc3=C3C(=O)c4ccccc4C(=O)C32)cc1` (stereo not drawn), the GI50 in the test with OVCAR-5 was > 10 µM (inactive); with SNB-19 it was 48.9 µM (inactive); with Malme-3M it was 53.7 µM (inactive); with PC-3 it was 61.4 µM (inactive); with MDA-MB-435, > 100 µM (inactive); in the test with HCT-116 it was 71.6 µM (inactive). Further, the GI50 in the test on RXF 393 was 16 µM (inactive); in the test on SNB-75 it was 52.6 µM (inactive); in the test on RPMI-8226, > 100 µM (inactive); in the test on SW-620, > 100 µM (inactive); in the test with LOX IMVI, > 100 µM (inactive); with HL-60, 99.5 µM (inactive). Also, the GI50 is 28.4 µM (inactive) in the test with 786-0; > 100 µM (inactive) in the test on A549; 39.4 µM (inactive) with OVCAR-8; 69 µM (inactive) with EKVX; 38.2 µM (inactive) with SK-OV-3; > 10 µM (inactive) in the test with HCC 2998. Also, the GI50 in the test on HOP-92 was 25.4 µM (inactive); with NCI-H522, 4.38 µM (inactive).
`C[Si](C)(OCCS(=O)(=O)O)C1S(=O)(=O)OCCOS1(=O)=O`: the GI50 was > 100 µM (inactive) in the test on OVCAR-5; 36.8 µM (inactive) with SNB-19; > 100 µM (inactive) in the test with Malme-3M; 93.5 µM (inactive) in the test on PC-3; 43.5 µM (inactive) in the test with MDA-MB-435; 67.1 µM (inactive) in the test on HCT-116. The GI50 is 21.7 µM (inactive) in the test with RXF 393; 20.5 µM (inactive) in the test with SNB-75; > 100 µM (inactive) with RPMI-8226; 0.495 µM (active) in the test with SW-620; 21.2 µM (inactive) with LOX IMVI; 27.5 µM (inactive) with HL-60. The GI50 is 36.1 µM (inactive) in the test on 786-0; 86.3 µM (inactive) in the test with OVCAR-8; > 100 µM (inactive) with EKVX; 79.4 µM (inactive) in the test with SK-OV-3; 35.5 µM (inactive) in the test on HCC 2998; 23.8 µM (inactive) in the test on HOP-92. Also, the GI50 in the test with NCI-H522 was 68.1 µM (inactive).
Regarding `CCOC(=O)C(CC(C)C)NC(=O)C(Cc1ccc(N(CCCl)CCCl)cc1)NC(C)=O` (stereo not drawn), the GI50 in the test with OVCAR-5 was 12.7 µM (inactive); in the test on SNB-19, 14 µM (inactive); with Malme-3M it was 2.44 µM (inactive); with PC-3 it was 15.8 µM (inactive); in the test on MDA-MB-435 it was 3.41 µM (inactive); in the test with HCT-116 it was 18.7 µM (inactive). For the same compound, the GI50 in the test with RXF 393 is 1.93 µM (inactive); in the test with SNB-75, 5.96 µM (inactive); with RPMI-8226, 2.82 µM (inactive); with SW-620, 7.73 µM (inactive); with LOX IMVI, 2.68 µM (inactive); with HL-60, 0.426 µM (active). For the same compound, the GI50 with 786-0 is 2.02 µM (inactive); in the test on A549, 13.4 µM (inactive); in the test on OVCAR-8 it was 8.63 µM (inactive); with EKVX, 11.1 µM (inactive); in the test on SK-OV-3, 15.8 µM (inactive); in the test with HCC 2998, 13.2 µM (inactive). Moreover, the GI50 was 0.63 µM (active) with HOP-92 and 1.57 µM (inactive) in the test on NCI-H522.
Consider `O=C1C(S(=O)(=O)c2ccccc2)=C(CS(=O)(=O)c2ccccc2)[C@@H](OCc2ccccc2)[C@@H]1OCc1ccccc1`, for which the GI50 was 27.9 µM (inactive) in the test with OVCAR-5; 34.3 µM (inactive) in the test with SNB-19; 17.6 µM (inactive) with Malme-3M; 25.8 µM (inactive) in the test on PC-3; 26.9 µM (inactive) in the test on MDA-MB-435; 13.6 µM (inactive) with HCT-116. Besides, the GI50 with RXF 393 is 13.9 µM (inactive); with SNB-75, > 100 µM (inactive); in the test with RPMI-8226, 11.6 µM (inactive); in the test on SW-620, 18.7 µM (inactive); in the test on LOX IMVI, 15.8 µM (inactive); with HL-60, 17.1 µM (inactive). Besides, the GI50 is 26.4 µM (inactive) with 786-0; 27.7 µM (inactive) with A549; 18.5 µM (inactive) in the test on OVCAR-8; 27.2 µM (inactive) in the test on EKVX; 41.5 µM (inactive) with SK-OV-3; 18.9 µM (inactive) in the test with HCC 2998. Moreover, the GI50 with HOP-92 is 12.4 µM (inactive); in the test with NCI-H522, 16 µM (inactive).
As to `CCCCOc1ccc(CC(NC(=O)OC(C)(C)C)C(=O)NC(C)C(=O)NC(Cc2ccccc2)C(=O)NCC(N)=O)cc1` (stereo not drawn) (Boc-Y(nBu)AFG-NH2; configuration not given here), the GI50 in the test with OVCAR-5, in the test with SNB-19, in the test with Malme-3M, with PC-3, in the test on MDA-MB-435 and in the test on HCT-116 was > 100 µM (inactive) in each case. The GI50 in the test on RXF 393 was > 100 µM (inactive); in the test on SNB-75, > 100 µM (inactive); in the test with RPMI-8226, 32.6 µM (inactive); in the test on SW-620, > 100 µM (inactive); with LOX IMVI it was 65 µM (inactive); in the test on HL-60, 22 µM (inactive). Besides, the GI50 in the test with 786-0 is > 100 µM (inactive); in the test on A549, > 100 µM (inactive); with OVCAR-8 it was > 100 µM (inactive); in the test with SK-OV-3, > 100 µM (inactive); with HCC 2998 it was > 100 µM (inactive); in the test with HOP-92, 61.4 µM (inactive). In the test on NCI-H522, the GI50 was 66.5 µM (inactive).

Source of the values: ChEMBL document CHEMBL1201862, “PubChem BioAssay data set” (2004).
